Earlier results as cited in PubChem BioAssay AID1259409 (Chemical Carcinogenesis Research Information System (CCRIS), 2018).

Tested on: rodent chemically induced tumor inhibition, incidence and multiplicity
Test: CCRIS tumor inhibitor studies

SMILES: CC1=C(/C=C/C(C)=C/C=C/C(C)=C/C=C/C=C(C)/C=C/C=C(C)/C=C/C2=C(C)CCCC2(C)C)C(C)(C)CCC1
- tumour outcome (control, treated, inhibition, significance) (Carcinogen: 1,2-DIMETHYLHYDRAZINE, 540-73-8, Dose [Inhibitor]: 0, 0.005% IN DIET FOR 14 WK BEGINNING 3 D PRIOR TO CARCINOGEN TREATMENT (STUDY DURATION: 26 WK), Route [Inhibitor]: ORAL, Species: RAT, Strain/Sex: SPRAGUE-DAWLEY/MALE, Target Tissue: Type of Lesion: INTESTINE: CARCINOMA, Dose [Carcinogen]: 20 MG/KG BW 1/WK FOR 12 WK, Promoter: NONE USED): 23/28 (82%), 11/20 (55%), 33%, p<0.05
- tumour outcome (control, treated, inhibition, significance) (Carcinogen: 4-(METHYLNITROSAMINO)-1-(3-PYRIDYL)-1-BUTANONE [64091-50-5], Dose [Inhibitor]: 16 MG/KG SC 2X/WK FOR 16 WK BEGINNING 1 WK PRIOR TO FIRST CARCINOGEN DOSE (STUDY DURATION: 16 WK), Route [Inhibitor]: SUBCUTANEOUS, Species: MOUSE, Strain/Sex: A/J/FEMALE, Target Tissue: Type of Lesion: LUNG: ADENOMA OR ADENOCARCINOMA, Dose [Carcinogen]: 10 UMOL ONCE 1 WK POST FIRST INHIBITOR DOSE (STUDY DURATION: 16 WK), Promoter: NONE): 100%, 100%, 0%, not significant
- tumour outcome (control, treated, inhibition, significance) (Carcinogen: 4-(METHYLNITROSAMINO)-1-(3-PYRIDYL)-1-BUTANONE [64091-50-5], Dose [Inhibitor]: 32 MG/KG SC 2X/WK FOR 17 WK BEGINNING 1 WK PRIOR TO FIRST CARCINOGEN DOSE (STUDY DURATION: 17 WK), Route [Inhibitor]: SUBCUTANEOUS, Species: MOUSE, Strain/Sex: A/J/FEMALE, Target Tissue: Type of Lesion: LUNG: ADENOMA, Dose [Carcinogen]: 10 UMOL ONCE 1 WK POST FIRST INHIBITOR DOSE (STUDY DURATION: 17 WK), Promoter: NONE): 100%, 100%, 0%, not significant
- tumour outcome (control, treated, inhibition, significance) (Carcinogen: 4-(METHYLNITROSAMINO)-1-(3-PYRIDYL)-1-BUTANONE [64091-50-5], Dose [Inhibitor]: 32 MG/KG SC 2X/WK FOR 53 WK BEGINNING 1 WK PRIOR TO FIRST CARCINOGEN DOSE (STUDY DURATION: 53 WK), Route [Inhibitor]: SUBCUTANEOUS, Species: MOUSE, Strain/Sex: A/J/FEMALE, Target Tissue: Type of Lesion: LUNG: ADENOMA OR ADENOCARCINOMA, Dose [Carcinogen]: 10 UMOL ONCE 1 WK POST FIRST INHIBITOR DOSE (STUDY DURATION: 53 WK), Promoter: NONE): 100%, 100%, 0%, not significant
- tumour outcome (control, treated, inhibition, significance) (Carcinogen: 4-NITROQUINOLINE-1-OXIDE, 56-57-5, Dose [Inhibitor]: 0, 0.05% IN DRINKING WATER AD LIBITUM (STUDY DURATION: 30 WK), Route [Inhibitor]: ORAL, Species: MOUSE, Strain/Sex: DDY/MALE, Target Tissue: Type of Lesion: LUNG: TUMOR, Dose [Carcinogen]: 10 MG/KG BW IN OLIVE OIL/CHOLESTEROL (20:1) ONCE, Promoter: GLYCEROL, 56-81-5): 94%, 93%, 1%, not significant
- tumour outcome (control, treated, inhibition, significance) (Carcinogen: 4-NITROQUINOLINE-1-OXIDE, 56-57-5, Dose [Inhibitor]: 0, 0.05% IN DRINKING WATER BEGINNING 5 WK POST CARCINOGEN TREATMENT AND CONTINUING FOR 25 WK (STUDY DURATION: 30 WK), Route [Inhibitor]: ORAL, Species: MOUSE, Strain/Sex: DDY/MALE, Target Tissue: Type of Lesion: LUNG: TUMORS, Dose [Carcinogen]: 10 MG/KG BW IN OLIVE OIL AND CHOLESTEROL (20:1) ONCE, Promoter: NONE USED): 94%, 93%, 1%, not significant
- tumour outcome (control, treated, inhibition, significance) (Carcinogen: 4-NITROQUINOLINE-1-OXIDE, 56-57-5, Dose [Inhibitor]: 0, 500 PPM IN DIET FOR 10 WK BEGINNING 1 WK PRIOR TO CARCINOGEN TREATMENT (STUDY DURATION: 32 WK), Route [Inhibitor]: ORAL, Species: RAT, Strain/Sex: F344/MALE, Target Tissue: Type of Lesion: TONGUE: CARCINOMA, Dose [Carcinogen]: 20 PPM IN DRINKING WATER FOR 8 WK, Promoter: NONE USED): 13/24 (54%), 3/17 (18%), 67%, p<0.05
- tumour outcome (control, treated, inhibition, significance) (Carcinogen: 4-NITROQUINOLINE-1-OXIDE, 56-57-5, Dose [Inhibitor]: 0, 500 PPM IN DIET FOR 10 WK BEGINNING 1 WK PRIOR TO CARCINOGEN TREATMENT (STUDY DURATION: 32 WK), Route [Inhibitor]: ORAL, Species: RAT, Strain/Sex: F344/MALE, Target Tissue: Type of Lesion: TONGUE: PAPILLOMA, Dose [Carcinogen]: 20 PPM IN DRINKING WATER FOR 8 WK, Promoter: NONE USED): 4/24 (17%), 2/17 (12%), 29%, not significant
- tumour outcome (control, treated, inhibition, significance) (Carcinogen: 4-NITROQUINOLINE-1-OXIDE, 56-57-5, Dose [Inhibitor]: 0, 500 PPM IN DIET FOR 22 WK BEGINNING 1 WK POST CARCINOGEN TREATMENT (STUDY DURATION: 32 WK), Route [Inhibitor]: ORAL, Species: RAT, Strain/Sex: F344/MALE, Target Tissue: Type of Lesion: TONGUE: CARCINOMA, Dose [Carcinogen]: 20 PPM IN DRINKING WATER FOR 8 WK, Promoter: NONE USED): 13/24 (54%), 4/17 (24%), 56%, p<0.05
- tumour outcome (control, treated, inhibition, significance) (Carcinogen: 4-NITROQUINOLINE-1-OXIDE, 56-57-5, Dose [Inhibitor]: 0, 500 PPM IN DIET FOR 22 WK BEGINNING 1 WK POST CARCINOGEN TREATMENT (STUDY DURATION: 32 WK), Route [Inhibitor]: ORAL, Species: RAT, Strain/Sex: F344/MALE, Target Tissue: Type of Lesion: TONGUE: PAPILLOMA, Dose [Carcinogen]: 20 PPM IN DRINKING WATER FOR 8 WK, Promoter: NONE USED): 4/24 (17%), 2/17 (12%), 29%, not significant
- tumour outcome (control, treated, inhibition, significance) (Carcinogen: 7,12-DIMETHYLBENZ[A]ANTHRACENE, 57-97-6, Dose [Inhibitor]: 0, 0.05% IN DRINKING WATER AD LIBITUM FOR 30 WK BEGINNING 1 WK POST CARCINOGEN DOSE (STUDY DURATION: 31 WK), Route [Inhibitor]: ORAL, Species: MOUSE, Strain/Sex: ICR/FEMALE, Target Tissue: Type of Lesion: SKIN: TUMOR, Dose [Carcinogen]: 100 UG ONCE, Promoter: 12-O-TETRADECANOYLPHORBOL-13-ACETATE, 16561-29-8): 13/16 (81%), 8/16 (50%), 38%, not significant
- tumour outcome (control, treated, inhibition, significance) (Carcinogen: 7,12-DIMETHYLBENZ[A]ANTHRACENE, 57-97-6, Dose [Inhibitor]: 0, 200 NMOL IN 200 µL ACETONE 2/WK BEGINNING 1 WK POST CARCINOGEN DOSE APPLIED SIMULTANEOUSLY WITH PROMOTER FOR 20 WK (S, Route [Inhibitor]: DERMAL, Species: MOUSE, Strain/Sex: ICR/?, Target Tissue: Type of Lesion: SKIN: PAPILLOMA, Dose [Carcinogen]: 100 UG ONCE, Promoter: 12-O-TETRADECANOYLPHORBOL-13-ACETATE, 16561-29-8): 69%, 31%, 55%, not calculated
- tumour outcome (control, treated, inhibition, significance) (Carcinogen: 7,12-DIMETHYLBENZ[A]ANTHRACENE, 57-97-6, Dose [Inhibitor]: 0, 200 NMOL IN 200 µL ACETONE 2/WK FOR 40 WK APPLIED SIMULTANEOUSLY WITH PROMOTER BEGINNING 1 WK POST CARCINOGEN DOSE (S, Route [Inhibitor]: DERMAL, Species: MOUSE, Strain/Sex: ICR/FEMALE, Target Tissue: Type of Lesion: SKIN: TUMOR, Dose [Carcinogen]: 100 UG ONCE, Promoter: 12-O-TETRADECANOYLPHORBOL-13-ACETATE, 16561-29-8): 10/15 (67%), 8/15 (53%), 21%, not significant
- tumour outcome (control, treated, inhibition, significance) (Carcinogen: 7,12-DIMETHYLBENZ[A]ANTHRACENE, 57-97-6, Dose [Inhibitor]: 0, 200 NMOL PALM CAROTENE FOR 22 WK BEGINNING 1 WK POST CARCINOGEN DOSE (STUDY DURATION: 40 WK), Route [Inhibitor]: DERMAL, Species: MOUSE, Strain/Sex: ICR/FEMALE, Target Tissue: Type of Lesion: SKIN: TUMOR, Dose [Carcinogen]: 100 UG ONCE, Promoter: GLYCOCHOLIC ACID, 475-31-0, MEZEREIN, 34807-41-5, Promoter: GLYCOCHOLIC ACID, 475-31-0, MEZEREIN, 34807-41-5): 26%, 0%, 100%, not calculated
- tumour outcome (control, treated, inhibition, significance) (Carcinogen: 7,12-DIMETHYLBENZ[A]ANTHRACENE, 57-97-6, Dose [Inhibitor]: 0, 250 MG SUSPENDED IN LIQUID PARAFFIN APPLIED TO EACH CHEEK POUCH 2/WK BEGINNING 15 D POST LAST CARCINOGEN DOSE AND CON, Route [Inhibitor]: DERMAL, Species: HAMSTER, Strain/Sex: SYRIAN/MALE, Target Tissue: Type of Lesion: CHEEK POUCH: TUMOR, Dose [Carcinogen]: 0.125 MG (0.25% LIQUID PARAFFIN SOLUTION) APPLIED TO EACH CHEEK POUCH FOR 1 MO, Promoter: NONE USED): 10/15 (67%), 0/20 (0%), 100%, not calculated
- tumour outcome (control, treated, inhibition, significance) (Carcinogen: 7,12-DIMETHYLBENZ[A]ANTHRACENE, 57-97-6, Dose [Inhibitor]: 0, 250 MG SUSPENDED IN LIQUID PARAFFIN APPLIED TO EACH CHEEK POUCH 2/WK BEGINNING 15 D POST LAST CARCINOGEN DOSE AND CON, Route [Inhibitor]: DERMAL, Species: HAMSTER, Strain/Sex: SYRIAN/MALE, Target Tissue: Type of Lesion: STOMACH: TUMOR, Dose [Carcinogen]: 0.125 MG (0.25% LIQUID PARAFFIN IN SOLUTION) APPLIED TO EACH CHEEK POUCH 2/WK FOR 1 MO, Promoter: NONE USED): 15/15 (100%), 0/20 (0%), 100%, not calculated
- tumour outcome (control, treated, inhibition, significance) (Carcinogen: 7,12-DIMETHYLBENZ[A]ANTHRACENE, 57-97-6, Dose [Inhibitor]: 0, 290 IU/KG IN 100 µL PEANUT OIL 5 D/WK BEGINNING 1 WK POST CARCINOGEN DOSE AND CONTINUING FOR DURATION OF STUDY (STUDY, Route [Inhibitor]: GAVAGE, Species: MOUSE, Strain/Sex: HRA/SKH/FEMALE, Target Tissue: Type of Lesion: SKIN: CARCINOMA, Dose [Carcinogen]: 10 NMOL IN 50 µL ACETONE ONCE): 7/25 (28%), 7/38 (18%), 36%, not calculated
- outcome (Carcinogen: 7,12-DIMETHYLBENZ[A]ANTHRACENE, 57-97-6, Dose [Inhibitor]: 0, 290 IU/KG IN 100 µL PEANUT OIL 5 D/WK BEGINNING 1 WK POST CARCINOGEN DOSE AND CONTINUING FOR DURATION OF STUDY (STUDY, Route [Inhibitor]: GAVAGE, Species: MOUSE, Strain/Sex: HRA/SKH/FEMALE, Target Tissue: Type of Lesion: SKIN: PAPILLOMA, Dose [Carcinogen]: 10 NMOL IN 50 µL ACETONE ONCE): 97%, 77%, 21%, not calculated at 20 wk; 68%, 50%, 27%, not calculated at 40 wk
